How the values were obtained:
IL-1β = test: Inhibition on NLRP3 by EVs, IL-1β in BV2 microglia cell line; format: cell-based; details: BV2 cells, LPS + ATP, 48 hours, 100 mM of mefenamic acid
Procedure: (§1) In order to investigate anti-inflammatory and NLR family pyrindomain containing 3 (NLRP3) inflammasome inhibitory effects of ADSC-derived EVs, a study was performed using a BV2 microglia cell line (hereinafter referred to as BV2 cells). BV2 cells were initiated with 100 ng/ml of LPS and 5 mM of ATP, and 100 mM of mefenamic acid (a positive control group) or a low dose of ADSC-derived EVs (2×10^5 particles/cell) or a high dose of ADSC-derived EVs (2×10^6 particles/cell) in a humidified environment with 5%CO2 at 37° C. for 48 hours.

IL-18 = test: Inhibition on NLRP3 by EVs, IL-18 in BV2 microglia cell line; format: cell-based; details: BV2 cells, LPS + ATP, 48 hours, 100 mM of mefenamic acid
Procedure: as §1

Cc1cccc(Nc2ccccc2C(=O)O)c1C [mefenamic acid]
inhibited expression of IL-1β (compared to PBS group) (IL-1β; first stated set): 35.4%
inhibited expression of IL-1β (compared to PBS group) (IL-1β; second stated set): 69.5%
inhibited expression of IL-18 (compared to PBS group) (IL-18; first stated set): 29.2%
expression of IL-18 (compared to PBS group) (IL-18; second stated set): no significant change

— US20230233615A1, “PHARMACEUTICAL COMPOSITION FOR TREATING ALZHEIMER'S DISEASE” (Gwo Xi Stem Cell Applied Technology Co., Ltd., priority 2022, published 2023)
